Assay results: PubChem BioAssay (NCI)
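The compound was tested at five concentrations on cells cultured in 96-well plates, with a 48-hour exposure period. GI50 marks 50% less growth. TGI marks complete inhibition of growth.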

Assays:
Assay in all cases: NCI-60 cell line screen, 48 h
HCT-15 colon = system: HCT-15 colon
HCT-116 colon = system: HCT-116 colon
SF-539 CNS = system: SF-539 CNS
A498 renal = system: A498 renal
OVCAR-8 ovarian = system: OVCAR-8 ovarian
KM12 colon = system: KM12 colon
LOX IMVI melanoma = system: LOX IMVI melanoma
T-47D breast = system: T-47D breast
SK-MEL-28 melanoma = system: SK-MEL-28 melanoma
UO-31 renal = system: UO-31 renal
MDA-MB-231 breast = system: MDA-MB-231 breast
MDA-N = system: MDA-N
OVCAR-3 ovarian = system: OVCAR-3 ovarian
COLO 205 colon = system: COLO 205 colon
SN12C renal = system: SN12C renal
SNB-19 CNS = system: SNB-19 CNS
RPMI-8226 leukemia = system: RPMI-8226 leukemia
MALME-3M melanoma = system: MALME-3M melanoma
SR leukemia = system: SR leukemia
SF-268 CNS = system: SF-268 CNS
786-0 renal = system: 786-0 renal
NCI-H23 lung = system: NCI-H23 lung
MDA-MB-435 = system: MDA-MB-435
MCF7 breast = system: MCF7 breast
HT29 colon = system: HT29 colon
NCI/ADR-RES ovarian = system: NCI/ADR-RES ovarian
MOLT-4 leukemia = system: MOLT-4 leukemia
SNB-75 CNS = system: SNB-75 CNS
OVCAR-5 ovarian = system: OVCAR-5 ovarian
IGROV1 ovarian = system: IGROV1 ovarian
HOP-62 NSCLC = system: HOP-62 NSCLC
M14 melanoma = system: M14 melanoma
SK-OV-3 ovarian = system: SK-OV-3 ovarian
CCRF-CEM leukemia = system: CCRF-CEM leukemia
TK-10 renal = system: TK-10 renal
SW-620 colon = system: SW-620 colon
SK-MEL-2 melanoma = system: SK-MEL-2 melanoma
PC-3 prostate = system: PC-3 prostate
HS 578T breast = system: HS 578T breast
HL-60(TB) leukemia = system: HL-60(TB) leukemia
DU-145 prostate = system: DU-145 prostate
HCC-2998 colon = system: HCC-2998 colon
NCI-H460 lung = system: NCI-H460 lung
OVCAR-4 ovarian = system: OVCAR-4 ovarian
UACC-62 melanoma = system: UACC-62 melanoma
RXF 393 renal = system: RXF 393 renal
U251 CNS = system: U251 CNS
NCI-H522 lung = system: NCI-H522 lung
NCI-H226 lung = system: NCI-H226 lung
SF-295 CNS = system: SF-295 CNS
K-562 leukemia = system: K-562 leukemia
UACC-257 melanoma = system: UACC-257 melanoma
ACHN renal = system: ACHN renal
SK-MEL-5 melanoma = system: SK-MEL-5 melanoma
HOP-92 NSCLC = system: HOP-92 NSCLC
A549 NSCLC = system: A549 NSCLC
CAKI-1 renal = system: CAKI-1 renal
EKVX NSCLC = system: EKVX NSCLC

CCC1=C(C)c2cc3[n-]c(cc4nc(c(C=O)c5[n-]c(cc1n2)c(C)c5CC)C(C)=C4CC)c(C)c3CC.[Ni+2]
GI50 (HCT-15 colon): > 100 µM | TGI (HCT-15 colon): > 100 µM | GI50 (HCT-116 colon): > 100 µM | TGI (HCT-116 colon): > 100 µM | GI50 (SF-539 CNS): > 100 µM | TGI (SF-539 CNS): > 100 µM | GI50 (A498 renal): > 100 µM | TGI (A498 renal): > 100 µM | GI50 (OVCAR-8 ovarian): > 100 µM | TGI (OVCAR-8 ovarian): > 100 µM | GI50 (KM12 colon): > 100 µM | TGI (KM12 colon): > 100 µM | GI50 (LOX IMVI melanoma): > 100 µM | TGI (LOX IMVI melanoma): > 100 µM | GI50 (T-47D breast): > 100 µM | TGI (T-47D breast): > 100 µM | GI50 (SK-MEL-28 melanoma): > 100 µM | TGI (SK-MEL-28 melanoma): > 100 µM | GI50 (UO-31 renal): > 100 µM | TGI (UO-31 renal): > 100 µM | GI50 (MDA-MB-231 breast): > 100 µM | TGI (MDA-MB-231 breast): > 100 µM | GI50 (MDA-N): > 100 µM | TGI (MDA-N): > 100 µM | GI50 (OVCAR-3 ovarian): > 100 µM | TGI (OVCAR-3 ovarian): > 100 µM | GI50 (COLO 205 colon): > 100 µM | TGI (COLO 205 colon): > 100 µM | GI50 (SN12C renal): > 100 µM | TGI (SN12C renal): > 100 µM | GI50 (SNB-19 CNS): > 100 µM | TGI (SNB-19 CNS): > 100 µM | GI50 (RPMI-8226 leukemia): > 100 µM | TGI (RPMI-8226 leukemia): > 100 µM | GI50 (MALME-3M melanoma): > 100 µM | TGI (MALME-3M melanoma): > 100 µM | GI50 (SR leukemia): 0.022 µM | TGI (SR leukemia): > 100 µM | GI50 (SF-268 CNS): > 100 µM | TGI (SF-268 CNS): > 100 µM | GI50 (786-0 renal): > 100 µM | TGI (786-0 renal): > 100 µM | GI50 (NCI-H23 lung): > 100 µM | TGI (NCI-H23 lung): > 100 µM | GI50 (MDA-MB-435): > 100 µM | TGI (MDA-MB-435): > 100 µM | GI50 (MCF7 breast): > 100 µM | TGI (MCF7 breast): > 100 µM | GI50 (HT29 colon): > 100 µM | TGI (HT29 colon): > 100 µM | GI50 (NCI/ADR-RES ovarian): > 100 µM | TGI (NCI/ADR-RES ovarian): > 100 µM | GI50 (MOLT-4 leukemia): > 100 µM | TGI (MOLT-4 leukemia): > 100 µM | GI50 (SNB-75 CNS): 93.6 µM | TGI (SNB-75 CNS): > 100 µM | GI50 (OVCAR-5 ovarian): > 100 µM | TGI (OVCAR-5 ovarian): > 100 µM | GI50 (IGROV1 ovarian): > 100 µM | TGI (IGROV1 ovarian): > 100 µM | GI50 (HOP-62 NSCLC): > 100 µM | TGI (HOP-62 NSCLC): > 100 µM | GI50 (M14 melanoma): > 100 µM | TGI (M14 melanoma): > 100 µM | GI50 (SK-OV-3 ovarian): > 100 µM | TGI (SK-OV-3 ovarian): > 100 µM | GI50 (CCRF-CEM leukemia): > 100 µM | TGI (CCRF-CEM leukemia): > 100 µM | GI50 (TK-10 renal): > 100 µM | TGI (TK-10 renal): > 100 µM | GI50 (SW-620 colon): > 100 µM | TGI (SW-620 colon): > 100 µM | GI50 (SK-MEL-2 melanoma): > 100 µM | TGI (SK-MEL-2 melanoma): > 100 µM | GI50 (PC-3 prostate): > 100 µM | TGI (PC-3 prostate): > 100 µM | GI50 (HS 578T breast): > 100 µM | TGI (HS 578T breast): > 100 µM | GI50 (HL-60(TB) leukemia): > 100 µM | TGI (HL-60(TB) leukemia): > 100 µM | GI50 (DU-145 prostate): > 100 µM | TGI (DU-145 prostate): > 100 µM | GI50 (HCC-2998 colon): > 100 µM | TGI (HCC-2998 colon): > 100 µM | GI50 (NCI-H460 lung): > 100 µM | TGI (NCI-H460 lung): > 100 µM | GI50 (OVCAR-4 ovarian): > 100 µM | TGI (OVCAR-4 ovarian): > 100 µM | GI50 (UACC-62 melanoma): > 100 µM | TGI (UACC-62 melanoma): > 100 µM | GI50 (RXF 393 renal): > 100 µM | TGI (RXF 393 renal): > 100 µM | GI50 (U251 CNS): > 100 µM | TGI (U251 CNS): > 100 µM | GI50 (NCI-H522 lung): > 100 µM | TGI (NCI-H522 lung): > 100 µM | GI50 (NCI-H226 lung): > 100 µM | TGI (NCI-H226 lung): > 100 µM | GI50 (SF-295 CNS): > 100 µM | TGI (SF-295 CNS): > 100 µM | GI50 (K-562 leukemia): > 100 µM | TGI (K-562 leukemia): > 100 µM | GI50 (UACC-257 melanoma): > 100 µM | TGI (UACC-257 melanoma): > 100 µM | GI50 (ACHN renal): > 100 µM | TGI (ACHN renal): > 100 µM

Cc1occc(=O)c1O
TGI (SK-MEL-5 melanoma): > 100 µM | TGI (HOP-92 NSCLC): > 100 µM | TGI (HCT-15 colon): 28.7 µM | TGI (HCT-116 colon): > 100 µM | TGI (SF-539 CNS): > 100 µM | TGI (OVCAR-8 ovarian): > 100 µM | TGI (KM12 colon): > 100 µM | TGI (LOX IMVI melanoma): > 100 µM | TGI (T-47D breast): > 100 µM | TGI (SK-MEL-28 melanoma): > 100 µM | TGI (UO-31 renal): > 100 µM | TGI (MDA-MB-231 breast): 16.4 µM | TGI (MDA-N): > 100 µM | TGI (OVCAR-3 ovarian): > 100 µM | TGI (COLO 205 colon): > 100 µM | TGI (SN12C renal): 24.8 µM | TGI (SNB-19 CNS): > 100 µM | TGI (RPMI-8226 leukemia): > 100 µM | TGI (A549 NSCLC): > 100 µM | TGI (MALME-3M melanoma): > 100 µM | TGI (SR leukemia): > 100 µM | TGI (SF-268 CNS): > 100 µM | TGI (786-0 renal): > 100 µM | TGI (NCI-H23 lung): > 100 µM | TGI (MDA-MB-435): > 100 µM | TGI (MCF7 breast): > 100 µM | TGI (HT29 colon): > 100 µM | TGI (NCI/ADR-RES ovarian): > 100 µM | TGI (MOLT-4 leukemia): > 100 µM | TGI (SNB-75 CNS): > 100 µM | TGI (OVCAR-5 ovarian): > 100 µM | TGI (IGROV1 ovarian): > 100 µM | TGI (HOP-62 NSCLC): > 100 µM | TGI (M14 melanoma): > 100 µM | TGI (CCRF-CEM leukemia): > 100 µM | TGI (TK-10 renal): > 100 µM | TGI (SW-620 colon): > 100 µM | TGI (SK-MEL-2 melanoma): > 100 µM | TGI (PC-3 prostate): > 100 µM | TGI (HS 578T breast): > 100 µM | TGI (HL-60(TB) leukemia): > 100 µM | TGI (DU-145 prostate): > 100 µM | TGI (HCC-2998 colon): > 100 µM | TGI (NCI-H460 lung): > 100 µM | TGI (OVCAR-4 ovarian): > 100 µM | TGI (CAKI-1 renal): > 100 µM | TGI (EKVX NSCLC): > 100 µM | TGI (U251 CNS): > 100 µM | TGI (NCI-H522 lung): > 100 µM | TGI (NCI-H226 lung): > 100 µM | TGI (SF-295 CNS): > 100 µM | TGI (K-562 leukemia): > 100 µM | TGI (UACC-257 melanoma): > 100 µM | TGI (ACHN renal): > 100 µM
